This experiment concerns the target T1, TbARL6 (Trypanosoma brucei, UniProt Q57UH8).
T1 construct: gene Tb08.5H5.790; N-terminal His-tagged recombinant TbARL6 (nucleotides 1–570 of the ORF, Tb927.8.5060), expressed in E. coli
T1 sequence (Q57UH8 1-189): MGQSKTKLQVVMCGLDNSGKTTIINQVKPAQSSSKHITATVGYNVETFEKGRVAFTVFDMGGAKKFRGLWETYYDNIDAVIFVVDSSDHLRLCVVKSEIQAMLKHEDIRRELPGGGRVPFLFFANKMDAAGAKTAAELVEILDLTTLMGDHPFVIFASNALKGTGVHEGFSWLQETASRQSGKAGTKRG
The experiment can be described thus: mant fluorescence titration, one-site non-linear regression; displacement kinetics. Format: binding.

The term Kd denotes the equilibrium constant for the complex coming apart. Turning to `CNc1ccccc1C(=O)O[C@H]1[C@@H](O)[C@H](n2cnc3c(=O)[nH]c(N)nc32)O[C@@H]1COP(=O)(O)OP(=O)(O)O` [mGDP, mantGDP], the Kd worked out at 4.35 µM.

`CNc1ccccc1C(=O)O[C@H]1[C@@H](O)[C@H](n2cnc3c(=O)[nH]c(N)nc32)O[C@@H]1COP(=O)(O)OP(=O)(O)OP(=O)(O)O` [mGTP, mantGTP] yielded a Kd of 13.7 µM.
